# Experiments:
# SOD1^G93A mice = assay: Survival and rotarod, SOD1^G93A ALS mice; format: in vivo, mouse; settings: 1 and 10 mg/kg/day ad libitum
# Procedure: SOD1^G93A mice (B6SJL-Tg(SOD1*G93A)1Gur/J) were purchased from Jackson Laboratory (strain number 002726) and used in the ALS mouse model. The mice were divided into four groups: Control, SOD1, and KDS12025 (1 and 10 mg/kg/day). Starting at 10 weeks of age, KDS12025 was administered via ad libitum drinking water at doses of 1 mg/kg/day and 10 mg/kg/day. The control and SOD1 groups received standard drinking water. Motor function was evaluated weekly via the rotarod performance test, and the ratio of running time was normalized to that of littermate controls to assess motor coordination and endurance over time. Survival of the mice was monitored for up to 24 weeks, and median survival times were calculated for each group.
# A53T mice = assay: Immunohistochemistry of SNpc, A53T mice; format: in vivo, mouse; settings: for mean GABA intensity in GFAP-positive areas: Fig. 4k; for TH-positive neuron counts per hemisphere: Fig. 4l
# Procedure: Stereotaxic injections were performed to deliver the AAV-CMV-A53T virus or PBS (control) into the right SNpc (AP, −3.2 mm; ML, −1.3 mm; DV, −4.0 mm from the bregma) of the mice. The injections were administered at a rate of 0.2 μl/min, with a total volume of 1 μl. The procedure was conducted under general anesthesia induced by 1% isoflurane.
# (§1) The mice were deeply anesthetized with 2% isoflurane and positioned on the operating table. After the abdomen was opened and the heart was exposed, the […] were perfused with saline, followed by 4% paraformaldehyde (PFA) in 0.1 M PBS. The mice were decapitated, and the brains were excised from the skull. Excised brains were postfixed in 4% PFA overnight at 4 °C and dehydrated in 30% sucrose for 48 h. Coronal hippocampal sections were cut at 30 µm thickness with a cryostat and stored in storage solution. For the ALS experiments, lumbar spinal cords (L2–L5) were also carefully dissected and immediately immersed in 4% PFA for postfixation. The sections were fully washed in 0.1 M PBS and incubated for 1 h in blocking solution (0.3% Triton X-100, 2% donkey and goat serum in 0.1 M PBS). Next, a mixture of primary antibodies in the blocking solution was used for immunostaining on a shaker overnight at 4 °C. The sections were washed in PBS three times. After washing, the sections were incubated with the corresponding fluorescent secondary antibodies for 1 h at RT. DAPI staining was performed by adding a DAPI solution (1:2000) during the second washing step. After the washing step was complete, the sections were mounted on cover slides with mounting medium. A series of fluorescence images were obtained with an LSM900 (Zeiss, Germany) confocal microscope or Lattice SIM Elyra 7 (Zeiss, Germany). The 15–22 μm Z stack images in 1–2 μm steps were processed for image analysis, which was performed via the ImageJ (NIH, US) and ZEN digital imaging for light microscopy blue system (Zeiss, Germany) programs. The primary antibodies used were as follows: chicken anti-GFAP (1:500, Millipore, ab5541), rabbit anti-amyloid beta (1:500, Abcam, ab2539), mouse anti-NeuN (1:200, Millipore, ab377), rabbit anti-Hbβ (1:200, Abcam, ab214049), mouse anti-Hbβ (1:200, Santacruz, sc-21757), mouse anti-MAOB (1:200, Santacruz, sc-515354), mouse anti-8-OhdG (1:500, Santacruz, sc-393871), rabbit anti-TH (1:500, Pelfreez, p40101), and mouse anti-TH (1:200, Sigma, T2928). The following secondary antibodies from Jackson were diluted (1:500) in blocking solution: donkey-anti-chicken 405, donkey-anti-chicken 647, donkey-anti-rabbit 488, donkey-anti-rabbit 594, donkey-anti-rabbit 647, donkey-anti-guinea pig 488, donkey-anti-guinea pig 647, donkey-anti-mouse 594, and donkey-anti-mouse 647. Serial confocal sections immunolabeled with GFAP were compiled into a maximal projection to assess the GFAP signal within the hippocampus (Z-stacked images, 15–22 μm Z stack images in 1–2 μm steps of brain sections). Sholl analysis, performed via the ImageJ plugin, automatically generated concentric circles with 10-μm spacing from the nucleus (soma) to the farthest astrocytic process. This analysis quantified the intersections of GFAP-labeled processes within each circle, calculating the ramification index and ending radius, enabling the evaluation of astrocytic hypertrophy and morphological changes, as previously described.[78] In the focal GiD mouse model, NeuN-positive CA1 pyramidal neurons were quantified within a 50 × 50 μm^2 region via ImageJ to determine the number of CA1 pyramidal neurons.
# For the SNpc, astrocytes and dopaminergic neurons were analyzed separately. The SNpc region was manually reconstructed using anatomical landmarks and TH or GFAP signals. GFAP-positive astrocyte surfaces were reconstructed with surface details set to 0.6 μm, the diameter of the largest sphere at 2.0 μm, a manual threshold value minimum of 800, and diffusion transparency set to 60%. […]
# purified human Hb = biological target: T1, purified human Hb (Homo sapiens, UniProt P68871); assay: ITC binding affinity assay; settings: Hb+KDS12025, without H2O2
# T1 construct: purchased MP Biomedical 55914
# T1 sequence (P68871 2-147 limits assumed): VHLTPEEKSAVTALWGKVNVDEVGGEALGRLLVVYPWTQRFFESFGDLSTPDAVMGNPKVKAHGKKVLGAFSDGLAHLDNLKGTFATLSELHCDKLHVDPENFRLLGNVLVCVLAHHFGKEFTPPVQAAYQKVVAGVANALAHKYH
# T1 sequence (P69905 2-142 partner limits assumed): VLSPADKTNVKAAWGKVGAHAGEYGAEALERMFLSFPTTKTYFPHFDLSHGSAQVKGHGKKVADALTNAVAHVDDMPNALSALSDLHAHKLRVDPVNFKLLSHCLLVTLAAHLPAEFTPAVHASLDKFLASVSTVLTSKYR
# Procedure: All ITC experiments were conducted via a MicroCal AutoiTC200 (Malvern Panalytical) at the Korea Basic Science Institute (Ochang, Korea). Binding affinity was measured via the addition of 40 µl of 5 mM KDS12025 (ligand) and 200 µl of 200 μM purified human Hb (protein) (MP Biomedical, 55914) in sodium phosphate buffer (pH 7.2). For each titration experiment, 2 µl of KDS12025 was injected into purified human Hb for 4 s at intervals of 180 s at 25 °C. Overall, 19 injections were performed for each experiment, and the data were analyzed via MicroCal Origin 8.0 software.
# aged C57BL/6J mice = assay: Immunohistochemistry, aging mice; format: in vivo, mouse; settings: 30 month, 1 mg/kg/day
# Procedure: Aged 1-year-old C57BL/6J animals were purchased from Janvier Labs (France) and quarantined in the IBS Animal Facility for 2 weeks before the experiment. The animals were weighed, and their water consumption (in grams) was monitored for 3 days before the appropriate drug concentration was calculated for each dose group. The animals were randomly assigned to the drug/control and dose groups. […] The drug concentration (in water) was modified on the basis of changes in animal weight and corresponding water consumption every 3 months. Basal body temperature and body weight were monitored every 2 weeks. The care and handling of the animals were performed in accordance with the guidelines of the Institutional Animal Care and Use Committee of IBS (Daejeon, South Korea).
# as §1
smiles,measurement,setting,value
"CNc1ccc(NCCc2ccccc2OC)cc1.Cl [KDS12025, N^1-(2-methoxyphenethyl)-N^4-methylbenzene-1,4-diamine hydrochloride salt]",delay of motor impairment onset,SOD1^G93A mice; rotarod,more than 7 weeks
same,median survival,SOD1^G93A mice; untreated 140,168 days
same,mean intensity of Hbβ in GFAP-positive areas,"A53T mice; A53T contra+KDS12025, Fig. 5p",46.92±4.141
same,mean intensity of Hbβ in TH-positive areas,"A53T mice; A53T contra+KDS12025, Fig. 5q",61.58±2.401
same,mean intensity of GFAP in GFAP-positive area,"A53T mice; A53T contra+KDS12025, Fig. S12c",82.69±4.999
same,GFAP-positive area in the SNpc,"A53T mice; A53T contra+KDS, Fig. 4j",25.28±2.892
same,mean GABA intensity in GFAP-positive areas,A53T mice; A53T contra+KDS,10.18±1.460
same,TH-positive neuron counts per hemisphere,A53T mice; A53T contra+KDS,23.20±2.685
same,mean intensity of Hbβ in GFAP-positive areas,"A53T mice; A53T ipsi+KDS12025, Fig. 5p",34.98±2.564
same,mean intensity of Hbβ in TH-positive areas,"A53T mice; A53T ipsi+KDS12025, Fig. 5q",55.65±3.378
same,mean intensity of GFAP in GFAP-positive area,"A53T mice; A53T ipsi+KDS12025, Fig. S12c",106.7±3.202
same,GFAP-positive area in the SNpc,"A53T mice; A53T ipsi+KDS, Fig. 4j",34.18±3.214
same,mean GABA intensity in GFAP-positive areas,A53T mice; A53T ipsi+KDS,5.531±0.9318
same,TH-positive neuron counts per hemisphere,A53T mice; A53T ipsi+KDS,20.96±2.68
same,GFAP-positive area in the SNpc,"A53T mice; A53T+shHbβ::CaMKII+KDS12025, Fig. 6r",37.16±3.6
same,number of TH-positive neurons per hemisphere,"A53T mice; A53T+shHbβ::CaMKII+KDS12025, Fig. 6s",18.5±1.3
same,GFAP-positive area in the SNpc,"A53T mice; A53T+shHbβ::GFAP+KDS12025, Fig. 6r",42.7±5.05
same,number of TH-positive neurons per hemisphere,"A53T mice; A53T+shHbβ::GFAP+KDS12025, Fig. 6s",16.75±2.75
same,ΔG (ITC),purified human Hb,-7.53 kcal/mol
same,ΔH (ITC),purified human Hb,-580 kcal/mol
same,"Sholl analysis, sum of intersections (stats entry 7h)",aged C57BL/6J mice,"18 month (84.3±5.19, n=8), 30 month (44.4±5.44, n=9), 30 month+KDS (63.6±5.78, n=14) One-way ANOVA with Tukey's multiple comparisons test, F(2,28) = 9.65, p < 0.001 18 month vs. 30 month, p < 0.001; 18 month vs. 30 month+KDS, p = 0.05; 30 month vs. 30 month+KDS, p = 0.06"
same,NeuN-positive neurons in CA1 (NeuN intensity × neuron number),aged C57BL/6J mice; Fig. 7f,"18 month (1694642±125526, n=6), 30 month (1149296±45876, n=4), 30 month+KDS (1820376±163596, n=6) One-way ANOVA with Tukey's multiple comparisons test, F(2,13) = 5.78, p = 0.02 18 month vs. 30 month, p = 0.05; 18 month vs. 30 month+KDS, p = 0.77; 30 month vs. 30 month+KDS, p = 0.02"
same,GFAP-positive area,aged C57BL/6J mice; Fig. 7g,"18 month (272.5±20.8, n=44), 30 month (167.6±12, n=60), 30 month+KDS (212.0±12.4, n=76) One-way ANOVA with Tukey's multiple comparisons test, F(2,177) = 11.24, p < 0.001 18 month vs. 30 month, p < 0.001; 18 month vs. 30 month+KDS, p = 0.01; 30 month vs. 30 month+KDS, p = 0.06"
same,astrocytic Hbβ expression in the hippocampus,aged C57BL/6J mice; Fig. 7l,"18 month (56.4±1.04, n=48), 30 month (49.5±1.7, n=40), 30 month+KDS (62.8±1.32, n=32) One-way ANOVA with Tukey's multiple comparisons test, F(2,117) = 21.5, p < 0.001 18 month vs. 30 month, p < 0.001; 18 month vs. 30 month+KDS, p = 0.004; 30 month vs. 30 month+KDS, p < 0.001"
same,MAOB intensity in GFAP-positive areas,aged C57BL/6J mice; Fig. S19b,"18 month (40.7±0.7, n=95), 30 month (71.5±1.04, n=66), 30 month+KDS (51.1±0.8, n=83) One-way ANOVA with Tukey's multiple comparisons test, F(2,241) = 354.7, p < 0.001 18 month vs. 30 month, p < 0.001; 18 month vs. 30 month+KDS, p < 0.001; 30 month vs. 30 month+KDS, p < 0.001"
same,GABA intensity in GFAP-positive areas,aged C57BL/6J mice; Fig. S19c,"18 month (50.7±0.7, n=95), 30 month (67.03±1.7, n=66), 30 month+KDS (69.2±1.3, n=83) One-way ANOVA with Tukey's multiple comparisons test, F(2,198) = 84.9, p < 0.001 18 month vs. 30 month, p < 0.001; 18 month vs. 30 month+KDS, p < 0.001; 30 month vs. 30 month+KDS, p = 0.47"
same,TH-positive neurons in the SNpc,aged C57BL/6J mice; Fig. S19d,"Unaired t-test, two tailed 30 month (23.75±5.12, n=4), 30 month+KDS (40.2±2.67, n=5), p = 0.02 t = 3.03, df = 7"
